# Experimental data reported in PMC7248905, “Development of UHPLC-MS/MS Method for Indirubin-3′-Oxime Derivative as a Novel FLT3 Inhibitor and Pharmacokinetic Study in Rats” (Molecules, 2020).
# Read-outs that look alike come from different tables or passages of the source.
# Experiments:
# [1] = Pharmacokinetic study in rats after intravenous and oral administration; assay type: in vivo, Sprague Dawley rats; parameters: AUC/Dose: unit not given here; conditions: rat; for AUC(0-t) / clearance / MRT / half-life / Vd / Cmax / bioavailability: male, Sprague Dawley, plasma; for clearance: read-out: CL (time averaged total body clearance); for MRT: read-out: MRT (mean residence time) (converted); for Vd: read-out: Vd,ss (apparent volume of distribution at steady state); for Cmax: read-out: Cmax (maximum plasma concentration)
# Source text: The validated LC-MS/MS method was successfully implemented to quantify LDD-2614 in Sprague Dawley rat plasma to perform a pharmacokinetic study on LDD-2614 in rats after oral and intravenous administration.
# Male Sprague Dawley rats (7–8 weeks, 230–250 g) were supplied from Samtaco (Osan, Korea) and were housed in cages before the experiments. All animal experiments were approved by the Dankook University’s Institutional Animal Care and Use Committee (approval no. DKU-19-029). All rats were kept in a light-controlled room maintained at a temperature of 23 ± 2 °C with 12 h light and dark cycles and a relative humidity of 50% ± 10%. The rats were given ad libitum access to standard food and water and acclimated to the environment for 7 days prior to the experiment.
# The rats were fasted for at least 12 h prior to the start of the experiments and freely supplied water. On the morning of the test, the rats were anaesthetized with a mixture of alfaxan and rompun (75:25, v/v). For oral administration studies, the carotid artery was cannulated using a polyethylene tube (PE 60, 0.76 mm i.d., 1.22 mm o.d., Becton Dickinson, Franklin Lakes, NJ, USA) for efficient blood sampling. For intravenous administration studies, the carotid artery and jugular veins were cannulated for blood sampling and drug administration, respectively. Each cannula was exteriorized to the dorsal side of the neck. Then, each rat was individually housed in a rat metabolism cage and allowed to move freely. A recovery time of 3–4 h from anesthesia was allowed before drug administration. The rats were randomly divided into six groups as follows: the first three groups were orally administered LDD-2614 (4 mL/kg dissolved in distilled water) using a gastric gavage tube at doses of 1, 5, and 20 mg/kg, and the remaining three groups were intravenously injected over 1 min with LDD-2614 (4 mL/kg dissolved in distilled water) at doses of 1, 5, and 20 mg/kg. Samples of approximately 0.2 mL of blood were immediately collected via the carotid artery at 0 (before administration), 5, 15, 30, 60, 90, 120, 180, 240, 360, 480, and 1440 min after oral and intravenous administration. For intravenous administration, a sampling time of 1 min after administration was also added, and the remaining times were the same. The blood samples were immediately centrifuged at 12,000 rpm for 5 min. Each plasma sample was transferred into a new microtube and stored at −80 °C until used for LC–MS/MS analysis.
# All data are expressed as mean ± standard deviation. The pharmacokinetic parameters were calculated using Phoenix WinNonlin 2.1 (Pharmasight, Mountain View, CA, USA). A noncompartmental model was used.
# [2] = Stability of LDD-2614 in rat plasma (freeze-thaw, long-term, short-term, autosampler); assay type: in vitro ADME; conditions: for Measured Concentration: n = 5
# Protocol: Stability studies using three QC samples for freeze-thaw stability (three freeze-thaw cycles lasting 12 h each), long-term stability (sample stored at −80 °C and analyzed after 2 weeks), short-term temperature stability (samples kept at room temperature for 6 h), and post-preparation stability (12 h in autosampler) were evaluated. The measurements of the analytes were compared with those from newly prepared QC samples at the same concentrations. The accuracy (RE) of all analytes ranged from −0.6% to 8.6% for the three freeze-thaw cycles, −5.5% to −2.6% for long-term stability, −3.6% to −0.1% for short-term stability, and −1.5% to 1.5% for post-preparation stability.
# Stability was evaluated with rat plasma at the four QC concentrations. Three freeze (−80 °C) and thaw (room temperature, 25 °C and stand for 2 h) cycles, long-term stability (−80 °C for 2 weeks), short-term stability (room temperature for 6 h), and post-extraction stability (12 h in the autosampler at 4 °C) were tested. The concentrations of the prepared stability samples were compared to the QC samples prepared on the day of analysis. The stability samples were considered stable if recovered within 15% compared to the QC sample concentration.
# [3] = tested on: FLT3; parameters: method as in PMID 32272419; conditions: in vitro assays, previous studies; cited from earlier work
# [4] = tested on: MV4-11 cells; parameters: method as in PMID 32272419; conditions: AML line of MV4-11 cells, previous studies; cited from earlier work
# [5] = tested on: MV4-11 xenograft; parameters: method as in PMID 32272419; conditions: MV4-11 xenograft animal model, previous studies; cited from earlier work
# [6] = extracted rat plasma, autosampler 4 °C 12 h, nominal 0.3 ng/mL
# [7] = extracted rat plasma, autosampler 4 °C 12 h, nominal 150 ng/mL
# [8] = extracted rat plasma, autosampler 4 °C 12 h, nominal 400 ng/mL
# [9] = rat plasma, long-term −80 °C 2 weeks, nominal 0.3 ng/mL
# [10] = rat plasma, long-term −80 °C 2 weeks, nominal 150 ng/mL
# [11] = rat plasma, long-term −80 °C 2 weeks, nominal 400 ng/mL
# [12] = rat plasma, short-term room temp 6 h, nominal 0.3 ng/mL
# [13] = rat plasma, short-term room temp 6 h, nominal 150 ng/mL
# [14] = rat plasma, short-term room temp 6 h, nominal 400 ng/mL
# [15] = rat plasma, three freeze-thaw cycles, nominal 0.3 ng/mL
# [16] = rat plasma, three freeze-thaw cycles, nominal 150 ng/mL
# [17] = rat plasma, three freeze-thaw cycles, nominal 400 ng/mL
structure (smiles),measurement,setting,value
O=C1Nc2ccc(F)cc2C1=C1Nc2ccc(F)cc2C1=NOCCN1CCNCC1 [LDD-2614],AUC(0-t),"[1]; intravenous, 1 mg/kg, n = 7, mean ± SD",635 ng·h/mL
same,clearance,"[1]; intravenous, 1 mg/kg",30.7 ± 13.6 mL/min/kg
same,MRT,"[1]; intravenous, 1 mg/kg",4.53 h
same,half-life,"[1]; intravenous, 1 mg/kg, read-out: T1/2 (terminal half-life)",4.91 ± 0.542 h
same,Vd,"[1]; intravenous, 1 mg/kg",9.62 ± 3.38 L/kg
same,AUC(0-t),"[1]; intravenous, 5 mg/kg, n = 5, mean ± SD",3510 ng·h/mL
same,clearance,"[1]; intravenous, 5 mg/kg",20.8 ± 8.4 mL/min/kg
same,MRT,"[1]; intravenous, 5 mg/kg",4.76 h
same,half-life,"[1]; intravenous, 5 mg/kg, read-out: T1/2 (terminal half-life)",3.31 ± 0.575 h
same,Vd,"[1]; intravenous, 5 mg/kg",6.42 ± 2.44 L/kg
same,AUC(0-t),"[1]; intravenous, 20 mg/kg, n = 6, mean ± SD",14400 ng·h/mL
same,clearance,"[1]; intravenous, 20 mg/kg",23.2 ± 3.7 mL/min/kg
same,MRT,"[1]; intravenous, 20 mg/kg",5.88 h
same,half-life,"[1]; intravenous, 20 mg/kg, read-out: T1/2 (terminal half-life)",3.38 ± 0.778 h
same,Vd,"[1]; intravenous, 20 mg/kg",8.67 ± 2.08 L/kg
same,half-life,"[1]; intravenous, dose range 1–20 mg/kg, terminal phase, read-out: half-life (T1/2)",3 to 4 h
same,AUC(0-t),"[1]; oral, 1 mg/kg, n = 6, mean ± SD",73.8 ng·h/mL
same,Cmax,"[1]; oral, 1 mg/kg",5.96 ± 1.77 ng/mL
same,bioavailability,"[1]; oral, 1 mg/kg, read-out: F (bioavailability)",11.7%
same,AUC(0-t),"[1]; oral, 5 mg/kg, n = 6, mean ± SD",390 ng·h/mL
same,Cmax,"[1]; oral, 5 mg/kg",43.7 ± 8.2 ng/mL
same,bioavailability,"[1]; oral, 5 mg/kg, read-out: F (bioavailability)",11.1%
same,AUC(0-t),"[1]; oral, 20 mg/kg, n = 5, mean ± SD",1020 ng·h/mL
same,Cmax,"[1]; oral, 20 mg/kg",120 ± 33.4 ng/mL
same,bioavailability,"[1]; oral, 20 mg/kg, read-out: F (bioavailability)",7.1%
same,bioavailability,"[1]; oral, doses 1–20 mg/kg, compared with intravenous AUClast, read-out: bioavailability after oral administration",7.1 to 11.7%
same,AUC/Dose,"[1]; intravenous, 1 mg/kg",38.1 ± 18.5
same,AUC/Dose,"[1]; intravenous, 5 mg/kg",42.1 ± 12.9
same,AUC/Dose,"[1]; intravenous, 20 mg/kg",43.2 ± 7.5
same,dose linearity of pharmacokinetics,"[1]; intravenous, dose range 1–20 mg/kg",linear pharmacokinetic characteristics were observed
same,AUC/Dose,"[1]; oral, 1 mg/kg",4.43 ± 0.39
same,AUC/Dose,"[1]; oral, 5 mg/kg",4.69 ± 3.05
same,AUC/Dose,"[1]; oral, 20 mg/kg",3.05 ± 1.24
same,increase in AUC,"[1]; oral, 20 mg/kg versus 5 mg/kg (four-fold increase in dose)",approximately 2.5 fold
same,Accuracy (RE),[2]; [6],−1.1%
same,Measured Concentration,[2]; [6],0.30 ± 0.03 ng/mL
same,Accuracy (RE),[2]; [7],−1.5%
same,Measured Concentration,[2]; [7],147.8 ± 2.98 ng/mL
same,Accuracy (RE),[2]; [8],1.5%
same,Measured Concentration,[2]; [8],410.2 ± 24.3 ng/mL
same,degradation under the different storage and analysis conditions,"[2]; rat plasma, freeze-thaw, long-term, short-term, post-preparation",no significant degradation observed
same,Accuracy (RE),[2]; [9],−4.8%
same,Measured Concentration,[2]; [9],0.29 ± 0.02 ng/mL
same,Accuracy (RE),[2]; [10],−2.6%
same,Measured Concentration,[2]; [10],146.1 ± 0.65 ng/mL
same,Accuracy (RE),[2]; [11],–5.5%
same,Measured Concentration,[2]; [11],378.1 ± 17.7 ng/mL
same,Accuracy (RE),[2]; [12],−0.1%
same,Measured Concentration,[2]; [12],0.30 ± 0.03 ng/mL
same,Accuracy (RE),[2]; [13],−3.6%
same,Measured Concentration,[2]; [13],144.6 ± 6.46 ng/mL
same,Accuracy (RE),[2]; [14],−1.2%
same,Measured Concentration,[2]; [14],395.1 ± 13.0 ng/mL
same,Accuracy (RE),[2]; [15],8.6%
same,Measured Concentration,[2]; [15],0.33 ± 0.02 ng/mL
same,Accuracy (RE),[2]; [16],−0.6%
same,Measured Concentration,[2]; [16],149.1 ± 1.31 ng/mL
same,Accuracy (RE),[2]; [17],−0.3%
same,Measured Concentration,[2]; [17],398.9 ± 6.04 ng/mL
same,FLT3 inhibition,[3],FLT3 inhibition
same,anti-proliferative activity,[4],anti-proliferative activity
same,in vivo antitumor activity,[5],significant in vivo antitumor activity
